How the values were obtained:
Mus musculus [1] = assay: Antiinflammatory activity in mouse xylene induced ear edema model assessed as ear weight difference at 30 mg/kg, po once daily administered for 3 days prior to xylene stimulation and measured after 30 mins (reference value: 13.64 =/- 2.55 mg); type: functional; conditions: time 3 day
RAW264.7 [2] = assay: Inhibition of LPS induced NO production in mouse RAW264.7 cells at 10 uM in the presence of 500 ng/mL LPS measured after 24 hrs by Griess reagent based assay relative to control; type: functional
[3] = target: T1, Prostaglandin G/H synthase 1 (Ovis aries) (UniProt P05979); assay: Inhibition of ovine COX-1 assessed as production of PGE2 using arachidonic acid as a substrate preincubated for 60 mins at 0.1 uM followed by substrate addition and measured after 2 mins by ELISA analysis relative to control
T1 sequence (whole entry): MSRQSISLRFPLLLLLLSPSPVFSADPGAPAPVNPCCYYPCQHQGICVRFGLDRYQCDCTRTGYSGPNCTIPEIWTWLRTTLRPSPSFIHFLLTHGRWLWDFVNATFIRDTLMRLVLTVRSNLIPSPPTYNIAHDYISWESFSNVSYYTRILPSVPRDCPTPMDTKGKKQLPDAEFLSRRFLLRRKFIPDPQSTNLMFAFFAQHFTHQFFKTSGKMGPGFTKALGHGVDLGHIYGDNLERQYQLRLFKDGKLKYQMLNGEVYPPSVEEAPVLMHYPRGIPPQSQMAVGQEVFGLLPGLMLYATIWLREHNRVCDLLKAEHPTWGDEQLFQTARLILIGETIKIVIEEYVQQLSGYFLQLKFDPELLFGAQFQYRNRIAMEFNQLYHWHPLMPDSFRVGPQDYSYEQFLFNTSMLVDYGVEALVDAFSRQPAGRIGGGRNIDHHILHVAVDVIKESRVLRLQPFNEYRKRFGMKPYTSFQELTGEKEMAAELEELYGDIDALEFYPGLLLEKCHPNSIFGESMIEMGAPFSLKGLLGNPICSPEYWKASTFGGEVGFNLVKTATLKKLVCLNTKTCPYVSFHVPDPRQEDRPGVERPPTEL

[4] = Selectivity index, ratio of IC50 for ovine COX-1 to IC50 for human COX-2
Mus musculus [5] = assay: Antiinflammatory activity in mouse xylene induced ear edema model assessed as inhibition of auricular edemas at 30 mg/kg, po once daily administered for 3 days prior to xylene stimulation and measured after 30 mins relative to control; type: functional; conditions: 72 h, time 3 day
[6] = target: T2, Prostaglandin G/H synthase 2 (Homo sapiens, UniProt P35354); assay: Inhibition of human recombinant COX-2 assessed as production of PGE2 using arachidonic acid as a substrate preincubated for 60 mins followed by substrate addition and measured after 2 mins by ELISA analysis
T2 sequence (P35354 whole entry): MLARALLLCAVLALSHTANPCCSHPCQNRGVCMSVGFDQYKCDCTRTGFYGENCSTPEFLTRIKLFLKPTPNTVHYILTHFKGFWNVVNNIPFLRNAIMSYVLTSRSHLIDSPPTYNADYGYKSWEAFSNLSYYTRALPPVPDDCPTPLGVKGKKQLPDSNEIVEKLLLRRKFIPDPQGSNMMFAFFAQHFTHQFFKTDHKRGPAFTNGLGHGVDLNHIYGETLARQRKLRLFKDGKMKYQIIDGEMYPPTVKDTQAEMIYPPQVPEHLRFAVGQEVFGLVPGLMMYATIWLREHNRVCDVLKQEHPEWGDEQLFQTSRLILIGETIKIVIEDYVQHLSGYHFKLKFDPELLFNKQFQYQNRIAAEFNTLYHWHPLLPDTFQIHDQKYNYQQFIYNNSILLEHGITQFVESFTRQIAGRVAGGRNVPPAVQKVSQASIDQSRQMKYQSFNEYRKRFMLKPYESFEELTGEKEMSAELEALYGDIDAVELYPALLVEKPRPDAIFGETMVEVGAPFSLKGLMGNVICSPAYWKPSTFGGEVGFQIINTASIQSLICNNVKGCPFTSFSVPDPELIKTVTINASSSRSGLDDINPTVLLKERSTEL

[7] = target: T1, Prostaglandin G/H synthase 1 (Ovis aries); assay: Inhibition of ovine COX-1 assessed as production of PGE2 using arachidonic acid as a substrate preincubated for 60 mins at 10 uM followed by substrate addition and measured after 2 mins by ELISA analysis relative to control
[8] = target: T3, Prostaglandin G/H synthase 1 (Ovis aries, UniProt P05979); assay: Inhibition of ovine COX-1 assessed as production of PGE2 using arachidonic acid as a substrate preincubated for 60 mins followed by substrate addition and measured after 2 mins by ELISA analysis
T3 sequence (P05979 whole entry): T1 sequence (whole entry)

[9] = Solubility of the compound in water; type: physicochemical; conditions: buffer
[10] = target: T1, Prostaglandin G/H synthase 1 (Ovis aries); assay: Inhibition of ovine COX-1 assessed as production of PGE2 using arachidonic acid as a substrate preincubated for 60 mins at 100 uM followed by substrate addition and measured after 2 mins by ELISA analysis relative to control; conditions: time 62.0 min
[11] = Acute oral toxicity in female kunming mouse assessed as signs of gross toxicity measured once daily for 14 days; conditions: in vivo, time 14 day
RAW264.7 [12] = assay: Inhibition of LPS induced NO production in mouse RAW264.7 cells at 100 uM in the presence of 500 ng/mL LPS measured after 24 hrs by Griess reagent based assay relative to control; type: functional
[13] = target: T1, Prostaglandin G/H synthase 1 (Ovis aries); assay: Inhibition of ovine COX-1 assessed as production of PGE2 using arachidonic acid as a substrate preincubated for 60 mins at 1 uM followed by substrate addition and measured after 2 mins by ELISA analysis relative to control
RAW264.7 [14] = assay: Inhibition of LPS induced NO production in mouse RAW264.7 cells at 0.01 uM in the presence of 500 ng/mL LPS measured after 24 hrs by Griess reagent based assay relative to control; type: functional
Mus musculus [15] = assay: Analgesic activity in mouse model of acetic-acid induced writhing assessed as number of writhes at 30 mg/kg, po once daily administered for 3 days prior to acetic acid injection measured after 20 mins (reference value: 29.13+/-9.36); type: functional; conditions: time 3 day
RAW264.7 [16] = assay: Inhibition of LPS induced NO production in mouse RAW264.7 cells at 1 uM in the presence of 500 ng/mL LPS measured after 24 hrs by Griess reagent based assay relative to control; type: functional
RAW264.7 [17] = assay: Inhibition of LPS induced NO production in mouse RAW264.7 cells at 0.1 uM in the presence of 500 ng/mL LPS measured after 24 hrs by Griess reagent based assay relative to control; type: functional
Mus musculus [18] = assay: Analgesic activity in mouse model of acetic-acid induced writhing assessed as inhibition of writhing at 30 mg/kg, po once daily administered for 3 days prior to acetic acid injection measured after 20 mins relative to control; type: functional; conditions: 72 h, time 3 day
RAW264.7 [19] = assay: Cytotoxicity against mouse RAW 264.7 cells assessed as decreased cell viability at 100 uM measured after 18 hrs by MTT assay; type: cell-based; conditions: raw264.7, 18 h
RAW264.7 [20] = assay: Cytotoxicity against mouse RAW 264.7 cells assessed as decreased cell viability at 0.01 to 10 uM measured after 18 hrs by MTT assay; type: cell-based; conditions: raw264.7, 18 h, dose 0.01-10 µM
[21] = Acute oral toxicity in female kunming mouse assessed as effect on kidney histopathology at 2000 mg/kg measured once daily for 14 days; type: organism-based; conditions: in vivo, 336 h, time 14 day
[22] = Acute oral toxicity in female kunming mouse assessed as effect on liver histopathology at 2000 mg/kg measured once daily for 14 days; type: organism-based; conditions: in vivo, 336 h, time 14 day
[23] = Acute oral toxicity in female kunming mouse assessed as survival at 2000 mg/kg measured once daily for 14 days; type: organism-based; conditions: in vivo, 336 h, time 14 day

| SMILES | Activity (Mus musculus [1]) | inhibition at 10 µM (RAW264.7 [2]) | inhibition [3] | Ratio [4] | inhibition in vivo at 30 mg/kg (Mus musculus [5]) | IC50 [6] | inhibition [7] | IC50 [8] | solubility [9] | inhibition [10] | inhibition at 100 µM (RAW264.7 [12]) | inhibition [13] | inhibition at 0.01 µM (RAW264.7 [14]) | Activity (Mus musculus [15]) | inhibition at 1 µM (RAW264.7 [16]) | inhibition at 0.1 µM (RAW264.7 [17]) | inhibition in vivo at 30 mg/kg (Mus musculus [18]) | Activity (RAW264.7 [20]) | other results |
| --- | --- | --- | --- | --- | --- | --- | --- | --- | --- | --- | --- | --- | --- | --- | --- | --- | --- | --- | --- |
| Cc1ccc(-c2cc(C)n(S(=O)(=O)Oc3ccccc3)n2)cc1 | 11.57 mg | 21.1% | 34% | 455 | 15.2% | 1.1 nM | 72% | 500 nM | Insoluble | 70% | 31.6% | 55% | 10.5% | 14.38 | 19.3% | 18.1% | 50.7% |  | LD50 at 336 h [11]: > 2000 mg/kg |
| Cc1ccc(-c2cc(C)n(S(=O)(=O)Oc3ccccc3Cl)n2)cc1 | 9.96 mg | 22% | 20% | > 189 | 27% | 530 nM | 26% | > 100000 nM | Insoluble | 33% | 29.4% | 24% | 12.6% | 15 | 23.8% | 23.6% | 48.5% | 80% | Activity (RAW264.7 [19]): 80%; Activity [21]: Non-Toxic; Activity [22]: Non-Toxic; LD50 at 336 h [11]: > 2000 mg/kg; Activity [23]: Non-Toxic |
| Cc1cc(-c2ccccn2)nn1S(=O)(=O)Oc1ccc(Cl)cc1 |  |  | 51% | 16 |  | 5.8 nM | 80% | 90 nM |  | 83% |  | 56% |  |  |  |  |  |  |  |
| Cc1ccc(-c2cc(C)n(S(=O)(=O)Oc3ccc(I)cc3)n2)cc1 | 9.96 mg |  | 17% | 10500 | 27% | 9.2 nM | 41% | 96600 nM | Insoluble | 48% |  | 35% |  | 24.13 |  |  | 17.2% | Non-Toxic | Activity (RAW264.7 [19]): 40%; Activity [21]: Non-Toxic; Activity [22]: Non-Toxic; Activity [23]: Non-Toxic |
| Cc1ccc(-c2cc(C(F)(F)F)nn2-c2ccc(S(N)(=O)=O)cc2)cc1 [CELECOXIB] | 9.79 mg | 14.8% |  |  | 28.2% |  |  |  | Insoluble |  | 50.2% |  | 16.5% | 18.63 | 16.5% | 19.6% |  | 80% |  |
| Cc1ccc(-c2cc(C)n(S(=O)(=O)Oc3ccccc3I)n2)cc1 |  |  | 4% | > 1090 |  | 92 nM | 14% | > 100000 nM |  | 19% |  | 9% |  |  |  |  |  |  |  |
| O=S(=O)(Oc1ccccc1)n1nc(-c2ccccc2)cc1-c1ccccc1 | 10.13 mg |  | 27% | > 938 | 25.7% | < 10 nM | 44% | 9380 nM | Insoluble | 68% |  | 36% |  | 17.75 |  |  | 39.1% |  |  |

Source: ChEMBL document CHEMBL4808246 (Bioorg Med Chem, 2021)
